Converted amounts (≈) assume the structure as drawn.
Columns and labels:
Assay type in all cases: cell-based
S. aureus 209p JC-1 = experiment: MIC against standard strains (Table 1), S. aureus 209p JC-1; conditions: Staphylococcus aureus, Muller-Hinton agar, overnight 37° C., read-out: MIC (minimum growth inhibitory concentration)
Experimental: (§1) The minimum growth inhibitory concentration (MIC, μg/ml) of the compounds for each of the 25 standard laboratory strains (standard strains) shown in Table 1 was determined in accordance with the standard method of the Japan Chemotherapical Society (Chemotherapy, 29, 76-79 (1981) under "Re-revision of the measuring methods of minimum growth inhibitory concentration (MIC)").
(§2) That is, by using each test strain cultured overnight at 37° C. in a Muller-Hinton broth, there was prepared a bacterial solution with a cell density of 1×10^6 CFU/ml in the same broth. The bacterial solution was inoculated into the Muller-Hinton agar media each containing respectively one test agent (i.e., compound) and, after overnight incubation at 37° C., the minimum concentration that inhibited growth of the bacteria was determined and expressed as MIC.
(§3) Staphylococcus aureus 167 and Staphylococcus aureus 195 used in the test were MRSA. CTM (cefotiam) and FMOX (flomoxef) were used as the control agents.

S. aureus Smith = experiment: MIC against standard strains (Table 1), S. aureus Smith; conditions: Staphylococcus aureus, Muller-Hinton agar, overnight 37° C., read-out: MIC (minimum growth inhibitory concentration)
Experimental: as §1, §2, §3

S. aureus 167 = experiment: MIC against standard strains (Table 1), S. aureus 167 (MRSA); conditions: Staphylococcus aureus, Muller-Hinton agar, overnight 37° C., read-out: MIC (minimum growth inhibitory concentration)
Experimental: as §1, §2, §3

S. aureus 195 = experiment: MIC against standard strains (Table 1), S. aureus 195 (MRSA); conditions: Staphylococcus aureus, Muller-Hinton agar, overnight 37° C., read-out: MIC (minimum growth inhibitory concentration)
Experimental: as §1, §2, §3

S. epidemidis IAM 1296 = experiment: MIC against standard strains (Table 1), S. epidemidis IAM 1296; conditions: Muller-Hinton agar, overnight 37° C., read-out: MIC (minimum growth inhibitory concentration)
Experimental: as §1, §2, §3

M. luteus ATCC 9341 = experiment: MIC against standard strains (Table 1), M. luteus ATCC 9341; conditions: Micrococcus luteus, ATCC9341, Muller-Hinton agar, overnight 37° C., read-out: MIC (minimum growth inhibitory concentration)
Experimental: as §1, §2, §3

B. subtilis ATCC 6633 = experiment: MIC against standard strains (Table 1), B. subtilis ATCC 6633; conditions: Bacillus subtilis, ATCC6633, Muller-Hinton agar, overnight 37° C., read-out: MIC (minimum growth inhibitory concentration)
Experimental: as §1, §2, §3

E. coli JC-2 = experiment: MIC against standard strains (Table 1), E. coli JC-2; conditions: Escherichia coli, JC2, Muller-Hinton agar, overnight 37° C., read-out: MIC (minimum growth inhibitory concentration)
Experimental: as §1, §2, §3

E. coli CSH2(RK1) = experiment: MIC against standard strains (Table 1), E. coli CSH2(RK1); conditions: Escherichia coli, read-out: MIC (minimum growth inhibitory concentration)
Experimental: as §1, §2, §3

E. coli CSH2(RE45) = experiment: MIC against standard strains (Table 1), E. coli CSH2(RE45); conditions: Escherichia coli, read-out: MIC (minimum growth inhibitory concentration)
Experimental: as §1, §2, §3

K. pneuminiae IFO 3317 = experiment: MIC against standard strains (Table 1), K. pneuminiae IFO 3317; conditions: Muller-Hinton agar, overnight 37° C., read-out: MIC (minimum growth inhibitory concentration)
Experimental: as §1, §2, §3

K. pneuminiae No. 42 = experiment: MIC against standard strains (Table 1), K. pneuminiae No. 42; conditions: Muller-Hinton agar, overnight 37° C., read-out: MIC (minimum growth inhibitory concentration)
Experimental: as §1, §2, §3

P. mirabilis IFO 3849 = experiment: MIC against standard strains (Table 1), P. mirabilis IFO 3849; conditions: Proteus mirabilis, IFO3849, Muller-Hinton agar, overnight 37° C., read-out: MIC (minimum growth inhibitory concentration)
Experimental: as §1, §2, §3

P. vulugaris OX-19 = experiment: MIC against standard strains (Table 1), P. vulugaris OX-19; conditions: Muller-Hinton agar, overnight 37° C., read-out: MIC (minimum growth inhibitory concentration)
Experimental: as §1, §2, §3

M. morganii IFO 3848 = experiment: MIC against standard strains (Table 1), M. morganii IFO 3848; conditions: Morganella morganii, IFO3848, Muller-Hinton agar, overnight 37° C., read-out: MIC (minimum growth inhibitory concentration)
Experimental: as §1, §2, §3

S. marcescens IAM 1184 = experiment: MIC against standard strains (Table 1), S. marcescens IAM 1184; conditions: Serratia marcescens, IAM1184, Muller-Hinton agar, overnight 37° C., read-out: MIC (minimum growth inhibitory concentration)
Experimental: as §1, §2, §3

S. marcescens No. 16-2 = experiment: MIC against standard strains (Table 1), S. marcescens No. 16-2; conditions: Serratia marcescens, NO.162, Muller-Hinton agar, overnight 37° C., read-out: MIC (minimum growth inhibitory concentration)
Experimental: as §1, §2, §3

E. cloacae ATCC 13407 = experiment: MIC against standard strains (Table 1), E. cloacae ATCC 13407; conditions: Enterobacter cloacae, ATCC13407, Muller-Hinton agar, overnight 37° C., read-out: MIC (minimum growth inhibitory concentration)
Experimental: as §1, §2, §3

E. cloacae Nek39 = experiment: MIC against standard strains (Table 1), E. cloacae Nek39; conditions: Enterobacter cloacae, Muller-Hinton agar, overnight 37° C., read-out: MIC (minimum growth inhibitory concentration)
Experimental: as §1, §2, §3

C. freundii ATCC 8090 = experiment: MIC against standard strains (Table 1), C. freundii ATCC 8090; conditions: Citrobacter freundii, ATCC8090, Muller-Hinton agar, overnight 37° C., read-out: MIC (minimum growth inhibitory concentration)
Experimental: as §1, §2, §3

P. aeruginosa NCTC 10490 = experiment: MIC against standard strains (Table 1), P. aeruginosa NCTC 10490; conditions: Pseudomonas aeruginosa, NCTC10490, Muller-Hinton agar, overnight 37° C., read-out: MIC (minimum growth inhibitory concentration)
Experimental: as §1, §2, §3

P. aeruginosa AKR17 = experiment: MIC against standard strains (Table 1), P. aeruginosa AKR17; conditions: Pseudomonas aeruginosa, Muller-Hinton agar, overnight 37° C., read-out: MIC (minimum growth inhibitory concentration)
Experimental: as §1, §2, §3

P. cepacia CN 9113 = experiment: MIC against standard strains (Table 1), P. cepacia CN 9113; conditions: Burkholderia cepacia, CN9113, Muller-Hinton agar, overnight 37° C., read-out: MIC (minimum growth inhibitory concentration)
Experimental: as §1, §2, §3

A. faecalis ATCC 3750 = experiment: MIC against standard strains (Table 1), A. faecalis ATCC 3750; conditions: Alcaligenes faecalis, ATCC3750, Muller-Hinton agar, overnight 37° C., read-out: MIC (minimum growth inhibitory concentration)
Experimental: as §1, §2, §3

A. calcoaceticos T59 = experiment: MIC against standard strains (Table 1), A. calcoaceticos T59; conditions: Muller-Hinton agar, overnight 37° C., read-out: MIC (minimum growth inhibitory concentration)
Experimental: as §1, §2, §3

clinically isolated MRSA = experiment: Antibacterial potency against clinically isolated MRSA (47 strains); conditions: Staphylococcus aureus
Experimental: A test on the antibacterial potency against clinically isolated MRSA was conducted in the following way.
That is, using 47 strains of clinically isolated MRSA, MIC was determined for each of the test strains in accordance with the standard method of the Japan Chemotherapical Society as in Test Example 1, and the minimum growth inhibitory concentration which inhibited growth of 50% of the strains tested was expressed as MIC50 (μg/ml), and the minimum growth inhibitory concentration which inhibited growth of 90% of the strains tested was expressed as MIC90 (μg/ml).
In this test, FMOX was used as the control agent.

SMILES | MIC (S. aureus 209p JC-1) | MIC (S. aureus Smith) | MIC (S. aureus 195) | MIC (S. epidemidis IAM 1296) | MIC (M. luteus ATCC 9341) | MIC (B. subtilis ATCC 6633) | MIC (E. coli JC-2) | MIC (E. coli CSH2(RK1)) | MIC (E. coli CSH2(RE45)) | MIC (K. pneuminiae IFO 3317) | MIC (K. pneuminiae No. 42) | MIC (P. mirabilis IFO 3849) | MIC (P. vulugaris OX-19) | MIC (M. morganii IFO 3848) | MIC (S. marcescens IAM 1184) | MIC (S. marcescens No. 16-2) | MIC (E. cloacae ATCC 13407) | MIC (E. cloacae Nek39) | MIC (C. freundii ATCC 8090) | MIC (P. aeruginosa NCTC 10490) | further results
CN(C)CCn1nnnc1SCC1=C(C(=O)O)N2C(=O)[C@@H](NC(=O)Cc3csc(N)n3)[C@H]2SC1 [CTM, cefotiam, reference compound] | 0.78 µg/mL (≈ 1.48 µM) | 0.78 µg/mL (≈ 1.48 µM) | > 100 µg/mL | 0.39 µg/mL (≈ 0.742 µM) | 0.39 µg/mL (≈ 0.742 µM) | 0.39 µg/mL (≈ 0.742 µM) | 0.2 µg/mL (≈ 0.38 µM) | 0.2 µg/mL (≈ 0.38 µM) | 0.39 µg/mL (≈ 0.742 µM) | 0.2 µg/mL (≈ 0.38 µM) | 0.39 µg/mL (≈ 0.742 µM) | 0.39 µg/mL (≈ 0.742 µM) | 0.39 µg/mL (≈ 0.742 µM) | 0.2 µg/mL (≈ 0.38 µM) | 3.13 µg/mL (≈ 5.95 µM) | > 100 µg/mL | > 100 µg/mL | > 100 µg/mL | 0.78 µg/mL (≈ 1.48 µM) | 100 µg/mL (≈ 190 µM) | MIC (S. aureus 167): > 100 µg/mL; MIC (P. aeruginosa AKR17): > 100 µg/mL; MIC (P. cepacia CN 9113): > 100 µg/mL; MIC (A. faecalis ATCC 3750): 3.13 µg/mL (≈ 5.95 µM); MIC (A. calcoaceticos T59): > 100 µg/mL
CO[C@@]1(NC(=O)CSC(F)F)C(=O)N2C(C(=O)O)=C(CSc3nnnn3CCO)CO[C@@H]21 [FMOX, flomoxef, reference compound] | 0.39 µg/mL (≈ 0.786 µM) | 0.39 µg/mL (≈ 0.786 µM) | 3.13 µg/mL (≈ 6.3 µM) | 0.2 µg/mL (≈ 0.403 µM) | 0.1 µg/mL (≈ 0.201 µM) | 0.2 µg/mL (≈ 0.403 µM) | 0.1 µg/mL (≈ 0.201 µM) | 0.1 µg/mL (≈ 0.201 µM) | 0.1 µg/mL (≈ 0.201 µM) | 0.05 µg/mL (≈ 0.101 µM) | 0.1 µg/mL (≈ 0.201 µM) | 0.2 µg/mL (≈ 0.403 µM) | 0.39 µg/mL (≈ 0.786 µM) | 0.39 µg/mL (≈ 0.786 µM) | 0.2 µg/mL (≈ 0.403 µM) | 100 µg/mL (≈ 201 µM) | 100 µg/mL (≈ 201 µM) | 100 µg/mL (≈ 201 µM) | 0.2 µg/mL (≈ 0.403 µM) | > 100 µg/mL | MIC (P. aeruginosa AKR17): > 100 µg/mL; MIC (P. cepacia CN 9113): 100 µg/mL (≈ 201 µM); MIC (A. faecalis ATCC 3750): 0.1 µg/mL (≈ 0.201 µM); MIC (A. calcoaceticos T59): 100 µg/mL (≈ 201 µM); MIC50 (clinically isolated MRSA; concentration inhibiting growth of 50% of 47 clinically isolated MRSA strains): 5.13 µg/mL (≈ 10.3 µM); MIC90 (clinically isolated MRSA; concentration inhibiting growth of 90% of 47 clinically isolated MRSA strains): 32.1 µg/mL (≈ 64.6 µM)
Nc1nc(/C(=N/O)C(=O)N[C@@H]2C(=O)N3C(C(=O)[O-])=C(/C=C/C[n+]4cccc(-c5csc(N)n5)c4)CS[C@H]23)cs1 [Compound 12, 7β-[2-(2-aminothiazol-4-yl)-2-syn-hydroxyiminoacetamido]-3-[(E)-3-[3-(2-aminothiazol-4-yl)pyridinio]-1-propenyl]-3-cephem-4-carboxylate] | 0.1 µg/mL (≈ 0.171 µM) | 0.1 µg/mL (≈ 0.171 µM) | 1.56 µg/mL (≈ 2.67 µM) | 0.05 µg/mL (≈ 0.0855 µM) | 0.05 µg/mL (≈ 0.0855 µM) | 0.2 µg/mL (≈ 0.342 µM) | 0.05 µg/mL (≈ 0.0855 µM) | 0.2 µg/mL (≈ 0.342 µM) | 0.1 µg/mL (≈ 0.171 µM) | 0.05 µg/mL (≈ 0.0855 µM) | 0.1 µg/mL (≈ 0.171 µM) | 0.1 µg/mL (≈ 0.171 µM) | 0.05 µg/mL (≈ 0.0855 µM) | 0.025 µg/mL (≈ 0.0428 µM) | 0.1 µg/mL (≈ 0.171 µM) | 12.5 µg/mL (≈ 21.4 µM) | 0.39 µg/mL (≈ 0.667 µM) | 6.25 µg/mL (≈ 10.7 µM) | 0.05 µg/mL (≈ 0.0855 µM) | 3.13 µg/mL (≈ 5.35 µM) | MIC (S. aureus 167): 25 µg/mL (≈ 42.8 µM); MIC (P. aeruginosa AKR17): > 100 µg/mL; MIC (P. cepacia CN 9113): > 100 µg/mL; MIC (A. faecalis ATCC 3750): 1.56 µg/mL (≈ 2.67 µM); MIC (A. calcoaceticos T59): 12.5 µg/mL (≈ 21.4 µM)

— patent US5534508A, “Cephem compounds and antimicrobial agents” (Katayama Seiyakusyo Co., Ltd., priority 1993, dated 1996)
